The text below walks through data of patent US4629737A, “Secondary amines and use in pharmaceutical compositions” (Beecham Group p.l.c., priority 1982, dated 1986).

The nature of assay [1]: Effect on energy expenditure of mice. The format is in vivo, Female CFLP mice. The conditions noted are these: Mus musculus; for response vs control in vivo at 21 mg/kg: 21.0 mg/kg po. How it is done: Female CFLP mice, each weighing approximately 24 g were given food and water ad lib before and during the experiment. The compounds were dissolved in water by addition of one mole of hydrochloric acid per mole of compound and these solutions were administered orally to each of 12 mice. A further 12 mice were dosed orally with water. The mice were placed in boxes through which air was drawn and the oxygen content of the air leaving the boxes was measured. The energy expenditure of the mice was calculated for 21 hours after dosing from the volume of air leaving the boxes and its oxygen content, following the principles described by J. B. de V. Weir, J. Physiol. (London), 109, 1-9 (1949).

For the next assay, the system named is blood glucose. The assay is described as follows: Hypoglycaemic activity: reduction in area under blood glucose curve after glucose load. The format is in vivo, Female CFLP mice. The conditions noted are these: Mus musculus, read-out: % Reduction in area under Blood Glucose Curve. How it is done: Female CFLP mice, weighing approximately 25 g, were fasted for 24 hours prior to the study. The compounds under study were administered orally as an aqueous solution to each of 6 mice. 30 minutes later a blood sample (10 μl) was obtained from the tail for the analysis of blood glucose. Immediately after taking this blood sample, glucose (1 g/Kg body weight) was administered subcutaneously to each mouse. 6 mice were given water as a control. Blood samples were then obtained from each mouse at 30 minute intervals for 120 minutes.
Compounds that produced a significant (P<0.05) reduction of blood glucose, compared with control mice given water, at any time interval, were considered active. The area under the blood glucose curve over the 2 hour period after the administration of the glucose was calculated for each compound and compared with the value for control animals.

Setting [2] is: po, 3 h, read-out: Mean Energy Expenditure (0-3 h).
Where [3] appears, read: po, 21 h, read-out: Mean Energy Expenditure (0-21 h).
Setting [4] is: 25 μmol/Kg oral, 2 h after glucose 1 g/Kg s.c., vs control.
The mark [5] stands for this setting: 2.5 μmol/Kg oral, 2 h after glucose 1 g/Kg s.c., vs control.
[6] abbreviates: 12.5 μmol/Kg oral, 2 h after glucose 1 g/Kg s.c., vs control.
Setting [7] is: 25.1 mg/kg po, 0-3 h, read-out: Mean Energy Expenditure (0-3 h).

Counter-ions that a name gives are not always drawn. Like-named read-outs stand apart in the source and are kept apart here.

Take `CCOC(CNC(C)Cc1ccc(OCCNC)cc1)c1cccc(Cl)c1` (stereo not drawn) [Example 18, N-[2-(4-(2-Methylaminoethoxy)phenyl)-1-methylethyl]-2-ethoxy-2-(3-chlorophenyl)ethanamine dihydrochloride]: the response vs control in vivo at 23.2 mg/kg was determined as 115% in assay [1] (setting [2]) and 123% in assay [1] (setting [3]). Besides, the inhibition in vivo at 12.5 µmol/kg in the assay on blood glucose (po, 2 h) was 47.5%.

As to `COC(CNC(C)Cc1ccc(OCC(=O)N(C)C)cc1)c1cccc(Cl)c1` (stereo not drawn) [Example 19, N-[2-(4-Dimethylaminocarbonylmethoxyphenyl)-1-methylethyl]-2-methoxy-2-(3-chlorophenyl)ethanamine hydrochloride], the response vs control in vivo at 22.1 mg/kg amounted to 143% in assay [1] (setting [2]) and 139% in assay [1] (setting [3]). Besides, the inhibition in vivo at 1 µmol/kg in the assay with blood glucose (po, 2 h) was found to be 56%.

With `COC(CNC(C)Cc1ccc(OCCO)cc1)c1ccccc1` (stereo not drawn) [Example 21, N-[2-(4-(2-Hydroxyethoxy)phenyl)-1-methylethyl]-2-methoxy-2-phenylethanamine hydrochloride hemihydrate], the response vs control in vivo at 18.8 mg/kg in assay [1] (setting [3]) worked out at 120%; in assay [1] (18.8 mg/kg po, 0-3 h, read-out: Mean Energy Expenditure (0-3 h)), 147%. Moreover, the inhibition in vivo at 1 µmol/kg in the assay on blood glucose (1.0 μmol/Kg oral, 2 h after glucose 1 g/Kg s.c., vs control) turned out to be 48%.

Consider `CNC(=O)COc1ccc(CCC(C)NCC(OC)c2cccc(Cl)c2)cc1` (stereo not drawn) [Example 22, N-[3-(4-Methylaminocarbonylmethoxyphenyl)-1-methylpropyl]-2-methoxy-2-(3-chlorophenyl)ethanamine hydrochloride], for which the response vs control in vivo at 22.1 mg/kg in assay [1] (22.1 mg/kg po, 0-3 h, read-out: Mean Energy Expenditure (0-3 h)) worked out at 126%; in assay [1] (22.1 mg/kg po, 0-21 h, read-out: Mean Energy Expenditure (0-21 h)) it was 107%. Moreover, in the assay on blood glucose (setting [4]), the inhibition in vivo at 25 µmol/kg is 39%.

As for `COC(CNC(C)Cc1ccc(OCCN(C)C)cc1)c1cccc(Cl)c1` (stereo not drawn) [Example 23, N-[2-(4-(2-Dimethylaminoethoxy)phenyl)-1-methylethyl]-2-methoxy-2-(3-chlorophenyl)ethanamine dihydrochloride hemihydrate], the response vs control in vivo at 23.7 mg/kg amounted to 130% in assay [1] (setting [3]) and 163% in assay [1] (23.7 mg/kg po, 0-3 h, read-out: Mean Energy Expenditure (0-3 h)). For the same molecule, the inhibition in vivo at 2.5 µmol/kg in the assay with blood glucose (setting [5]) is 35%.

Consider `COC(CNC(C)Cc1ccc(OCCN)cc1)c1cccc(Cl)c1` (stereo not drawn) [Example 24, N-[2-(4-(2-Aminoethoxy)phenyl)-1-methylethyl]-2-methoxy-2-(3-chlorophenyl)ethanamine dihydrochloride hemihydrate], for which the response vs control in vivo at 22.3 mg/kg in assay [1] (setting [3]) came out at 128%; in assay [1] (22.3 mg/kg po, 0-3 h, read-out: Mean Energy Expenditure (0-3 h)) it was 147%. For the same molecule, in the assay with blood glucose (setting [6]), the inhibition in vivo at 12.5 µmol/kg was 51%.

Take `CCCOC(CNC(C)Cc1ccc(OCC(=O)OC)cc1)c1cccc(Cl)c1` (stereo not drawn) [Example 25, N-[2-(4-Carbomethoxymethoxyphenyl)-1-methylethyl]-2-^n-propoxy-2-(3-chlorophenyl)ethanamine hydrochloride]: the response vs control in vivo at 22.8 mg/kg in assay [1] (22.8 mg/kg po, 0-3 h, read-out: Mean Energy Expenditure (0-3 h)) stood at 137%; in assay [1] (22.8 mg/kg po, 0-21 h, read-out: Mean Energy Expenditure (0-21 h)) it was 105%. Also, the inhibition in vivo at 12.5 µmol/kg in the assay with blood glucose (setting [6]) was found to be 53.5%.

As for `COC(=O)COc1ccc(CC(C)NCC(OC(C)C)c2cccc(Cl)c2)cc1` (stereo not drawn) [Example 26, N-[2-(4-Carbomethoxymethoxyphenyl)-1-methylethyl]-2-isopropoxy-2-(3-chlorophenyl)ethanamine hydrochloride], the response vs control in vivo at 22.8 mg/kg in assay [1] (setting [2]) is 122%; in assay [1] (setting [3]) it was 103%. In the assay on blood glucose (po, 2 h), the inhibition in vivo at 2.5 µmol/kg amounted to 45%.

Consider `CCCOC(CNC(C)Cc1ccc(OCC(=O)NC)cc1)c1cccc(Cl)c1` (stereo not drawn) [Example 27, N-[2-(4-Methylaminocarbonylmethoxyphenyl)-1-methylethyl]-2-^n propoxy-2-(3-chlorophenyl)ethanamine dihydrochloride hemihydrate], for which the response vs control in vivo at 25.1 mg/kg in assay [1] (setting [3]) came out at 115%; in assay [1] (setting [7]) it was 143%. In addition, in the assay on blood glucose (setting [5]), the inhibition in vivo at 2.5 µmol/kg amounted to 52%.

Regarding `CNC(=O)COc1ccc(CC(C)NCC(OC(C)C)c2cccc(Cl)c2)cc1` (stereo not drawn) [Example 28, N-[2-(4-Methylaminocarbonylmethoxyphenyl)-1-methylethyl]-2-isopropoxy-2-(3-chlorophenyl)ethanamine dihydrochloride hemihydrate], the response vs control in vivo at 25.1 mg/kg came to 132% in assay [1] (setting [7]) and 113% in assay [1] (25.1 mg/kg po, 0-21 h, read-out: Mean Energy Expenditure (0-21 h)). In the assay on blood glucose (setting [5]), the inhibition in vivo at 2.5 µmol/kg amounted to 55%.

Take `CNC(=O)c1ccc(CC(C)NCC(OC)c2cccc(Cl)c2)cc1` (stereo not drawn) [Example 30, N-[2-(4-N'-Methylcarboxamidophenyl)-1-methylethyl]-2-methoxy-2-(3-chlorophenyl)ethanamine hydrochloride]: the response vs control in vivo at 19.9 mg/kg was 115% in assay [1] (setting [3]) and 119% in assay [1] (19.9 mg/kg po, 0-3 h, read-out: Mean Energy Expenditure (0-3 h)). Also, the inhibition in vivo at 12.5 µmol/kg in the assay on blood glucose (setting [6]) was 26.5%.

With `COC(CNC(C)Cc1ccc(CO)cc1)c1cccc(Cl)c1` (stereo not drawn) [Example 31, N-[2-(4-Hydroxymethylphenyl)-1-methylethyl]-2-methoxy-2-(3-chlorophenyl)ethanamine hydrochloride], the response vs control in vivo at 18.5 mg/kg in assay [1] (setting [2]) is 103%; in assay [1] (setting [3]), 126%. In addition, the inhibition in vivo at 12.5 µmol/kg with blood glucose (po, 2 h) came to 29%.

Consider `CCOC(CNC(C)Cc1ccc(C(=O)OC)cc1)c1cccc(Cl)c1` (stereo not drawn) [Example 33, N-[2-(4-Carbomethoxyphenyl)-1-methylethyl]-2-ethoxy-2-(3-chlorophenyl)ethanamine hydrochloride hemihydrate], for which the response vs control in vivo at 21.1 mg/kg in assay [1] (setting [3]) was found to be 122%; in assay [1] (21.1 mg/kg po, 0-3 h, read-out: Mean Energy Expenditure (0-3 h)), 148%. Also, the inhibition in vivo at 25 µmol/kg in the assay on blood glucose (setting [4]) amounted to 52%.

As to `CCOC(CNC(C)Cc1ccc(C(=O)NC)cc1)c1cccc(Cl)c1` (stereo not drawn) [Example 34, N-[2-(4-N'-Methylcarboxamidophenyl)-1-methylethyl]-2-ethoxy-2-(3-chlorophenyl)ethanamine hydrochloride], the response vs control in vivo at 20.6 mg/kg in assay [1] (setting [3]) is 116%; in assay [1] (20.6 mg/kg po, 0-3 h, read-out: Mean Energy Expenditure (0-3 h)), 148%. Moreover, the inhibition in vivo at 25 µmol/kg in the assay on blood glucose (setting [4]) is 34%.

For `CNCc1ccc(CC(C)NCC(OC)c2cccc(Cl)c2)cc1` (stereo not drawn) [Example 35, N-[2-(4-N'-Methylaminomethylphenyl)-1-methylethyl]-2-methoxy-2-(3-chlorophenyl)ethanamine dihydrochloride], the response vs control in vivo at 21 mg/kg was found to be 124% in assay [1] (0-3 h, read-out: Mean Energy Expenditure (0-3 h)) and 123% in assay [1] (0-21 h, read-out: Mean Energy Expenditure (0-21 h)). Also, the inhibition in vivo at 12.5 µmol/kg in the assay on blood glucose (setting [6]) is 10%.

In the case of `COC(=O)COc1ccc(CC(C)NCC(OC)c2cc3ccccc3o2)cc1` (stereo not drawn) [Example 36, N-[2-(4-Carbomethoxymethoxyphenyl)-1-methylethyl]-2-methoxy-2-(2-benzofuranyl)ethanamine hydrochloride], the response vs control in vivo at 21.6 mg/kg in assay [1] (setting [2]) was 131%; in assay [1] (setting [3]), 104%. Besides, the inhibition in vivo at 2.5 µmol/kg with blood glucose (po, 2 h) turned out to be 30%.

Regarding `CNC(=O)COc1ccc(CC(C)NCC(OC)c2cc3ccccc3o2)cc1` (stereo not drawn) [Example 37, N-[2-(4-Methylaminocarbonylmethoxyphenyl)-1-methylethyl]-2-methoxy-2-(2-benzofuranyl)ethanamine dihydrochloride], the response vs control in vivo at 23.6 mg/kg in assay [1] (setting [2]) is 134%; in assay [1] (setting [3]) it was 106%. Besides, in the assay with blood glucose (po, 2 h), the inhibition in vivo at 1 µmol/kg came out at 26%.

As for `COc1cccc(CC(C)NCC(OC)c2cccc(Cl)c2)c1` (stereo not drawn) [Example 39, N-[2-(3-Methoxyphenyl)-1-methylethyl]-2-methoxy-2-(3-chlorophenyl)ethanamine hydrochloride], the response vs control in vivo at 18.5 mg/kg was 130% in assay [1] (setting [2]) and 103% in assay [1] (setting [3]). In addition, the inhibition in vivo at 25 µmol/kg with blood glucose (po, 2 h) is 15%.

On to `COC(CNC(C)Cc1ccc(SC(C)C)cc1)c1cccc(Cl)c1` (stereo not drawn) [Example 40, N-[2-(4-Isopropylthiophenyl)-1-methylethyl]-2-methoxy-2-(3-chlorophenyl)ethanamine hydrochloride], for which the response vs control in vivo at 20.7 mg/kg in assay [1] (setting [2]) worked out at 128%; in assay [1] (setting [3]), 111%. Besides, the inhibition in vivo at 12.5 µmol/kg in the assay on blood glucose (po, 2 h) worked out at 31%.
